Key:
[1] = test system: C57BL/6J male mice; assay: Food intake in fasted mice after oral gavage or intraperitoneal administration; type: in vivo; details: for cumulative food intake (relative value (%)): mice fasted 16 hours; for cumulative food intake (energy (kcal)): comparative example, incl. energy of administered sugar
Protocol: As the experimental animal, C57BL/6J male mice were used. The mice were acclimated to the environment by preliminary rearing for 1 week or more in individual cages. After fasting the mice for 16 hours from 18:00 p.m. on the previous day of the experiment, each test solution was orally administered by gavage or intraperitoneally administered to the mice. In each administration route, physiological saline (10 mL/kg) was administered in a control group, and D-psicose (0.3 g/kg, 1 g/kg, or 3 g/kg) was administered in a test group. The concentration of the respective test solutions at this time was […], 10%, and 30%, respectively. Each solution was administered at 9:45 a.m., and from 10:00 a.m., the mice were allowed free access to CE-2 feed (a standard mouse feed with a good nutritional balance manufactured by CLEA Japan, Inc.), and the food intake was measured over time after 0.5 hours, 1 hour, 2 hours, 3 hours, 6 hours, and 24 hours.
Incidentally, as a comparative example, an experiment of oral administration by gavage of D-glucose (1 g/kg and 3 g/kg), which has a sweetness equivalent to D-psicose and has a similar structure, but is metabolized to contribute to energy production, was performed in the same manner.
The results obtained by plotting the elapsed time after administration on the abscissa, and the cumulative food intake (relative value (%)) at each elapsed time on the ordinate are shown in FIG. 1 (oral administration by gavage) and FIG. 2 (intraperitoneal administration). Incidentally, the cumulative food intake (relative value (%)) is expressed as the ratio of the cumulative food intake in each group with the average food intake in the physiological saline group at each time in each experiment performed taken as 100%. The obtained results are expressed as a mean and a standard error. A statistical test was performed by a one-way analysis of variance, and if a significant difference was detected, a Dunnett's test in comparison with the control group was performed. The significance level for the test was set to less than 5% on both sides, and the data was marked with * when the P value was less than 5%, and the data was marked with ** when the P value was less than 1%.
The cumulative food intake (energy (kcal)) after D-glucose (1 g/kg and 3 g/kg) was orally administered by gavage in the comparative example is shown in FIG. 3. […] The notation of the results and the statistical analysis is the same as in FIGS. 1 and 2.

[2] = test system: C57BL/6J male mice; assay: Conditioned taste aversion test (preference to saccharin solution); type: in vivo; details: conditioning on day 6, test on day 8
Protocol: As the experimental animal, C57BL/6J male mice which were the same as used in the previous experiment were used. The mice reared in individual cages were given two bottles of water only for 2 hours in a period between 10:00 a.m. and 12:00 p.m. for 5 days, whereby the mice were acclimated to the water restriction schedule. On day 6, a 0.15% saccharin solution was presented for 30 minutes, and thereafter, lithium chloride (3 mmol/kg) was intraperitoneally administered, whereby the mice were made to acquire an aversion to the taste of the saccharin solution (conditioning). In the same manner, a control group in which physiological saline (10 mL/kg) was orally administered and a test group in which D-psicose (1 g/kg or 3 g/kg) was orally administered were prepared. On day 7 serving as a rest day, the above-described water restriction schedule was performed. On day 8 serving as a test day, two bottles, one bottle containing a 0.15% saccharin solution and the other bottle containing water, were simultaneously presented for 30 minutes, and the ratio of preference to the saccharin solution (the intake amount of saccharin/the total intake amount from the two bottles) was determined.
The ratio of preference to the saccharin solution after making the mice to acquire a conditioned taste aversion is shown in FIG. 4. The obtained results are expressed as a mean and a standard error. A statistical test was performed by a one-way analysis of variance, and a Dunnett's test in comparison with the control group was performed. The data was marked with ** when the P value was less than 1%.

[3] = test system: c-Fos; assay: c-Fos expression (marker of neuronal activation) by immunostaining in nodose ganglion and medullary nucleus tractus solitarius; type: in vivo, mice; details: oral gavage 1 g/kg, fasted overnight, compared with physiological saline group
Protocol: The activation of “vagal afferent nuron” and “medullary nucleus tractus solitarius”, which is a projection site of the vagal afferent nerves, caused by the oral administration of D-psicose was analyzed based on the expression level of c-Fos, which is a marker of neuronal activation, using an immunostaining method. The c-Fos is a kind of immediate early gene and is an intranuclear protein whose expression level increases with the activation of a nerve and can be utilized as a marker of neuronal activation. The cell bodies of the vagal afferent neurons are all localized in the nodose ganglion, and these vagal afferent neurons are bipolar which project to the peripheral side (many internal organs such as heart, lung, gastrointestinal tract, pancreas, and liver) and the central side (medullary nucleus tractus solitarius).
As the experimental animal, C57BL/6J male mice were used. The mice were acclimated to the environment by preliminary rearing and handling for 1 week or more in individual cages. After fasting the mice overnight, D-psicose (1 g/kg) was orally administered by gavage. […]
The results of the expression level of c-Fos in the nodose ganglion and in the medullary nucleus tractus solitarius in the mice after orally administering D-psicose are shown in FIG. 5. The obtained results are expressed as a mean and a standard error. […]

[4] = test system: C57BL/6J male mice; assay: Liquid food intake in sham-operated and subdiaphragmatic vagotomized mice; type: in vivo; details: oral gavage 1 g/kg
Protocol: As the experimental animal, C57BL/6J male mice were used. The mice were divided into the following two groups: a sham-operated group consisting of sham-operated mice; and a subdiaphragmatic vagotomized group consisting of subdiaphragmatic vagotomized mice, and were subjected to the operation, respectively. After a recovery period of one week, the mice were fasted overnight (for 16 hours) on the previous day of the experiment of food intake. Thereafter, each test solution was orally administered by gavage to the mice, and the intake of a liquid food (milk for babies and toddlers) after the administration was examined. As the respective test solutions administered, in both of the sham-operated group and the subdiaphragmatic vagotomized group, physiological saline (10 mL/kg) or D-psicose (1 g/kg) was orally administered by gavage. The concentration of the D-psicose solution at this time was 10%. Each test solution was orally administered by gavage to mice at 9:45 a.m., and from 10:00 a.m., the mice were allowed free access to the liquid food, and the food intake was measured over time.
The cumulative liquid food intake after orally administering D-psicose (1 g/kg) by gavage to the subdiaphragmatic vagotomized mice and the sham-operated mice is shown in FIG. 6. […] The obtained results are expressed as a mean and a standard error. […]

[5] = test system: healthy subjects; assay: Satiety, hunger and appetite questionnaire (VAS) after breakfast in healthy human subjects; type: in vivo; details: humans
Protocol: Therefore, in this test, after fasting the subjects from 12 hours before the test day, the subjects were made to ingest either of the test solutions (150 mL) prepared to have the same degree of sweetness by adding 5 g of D-psicose or 10 mg of aspartame which is a high intensity sweetener as a control food. Incidentally, the concentration of the respective test solutions was 3.3% in the D-psicose group and 0.005% in the aspartame group. Further, the ingestion amount of D-psicose of the subjects was 0.071 to 0.096 g (mean: 0.085 g) per kilogram of body weight. After the ingestion, breakfast (sandwich, yogurt, and juice) (total calories: 405 kcal, proteins: 10.2%, fats: 28.4%, carbohydrates: 61.4%) was ingested in 10 minutes. During the test, the subjects were fasted except that they were allowed to free access to only prescribed water.
The questionnaire with respect to appetite was filled out by the evaluation using the VAS (Visual Analog Scale) method and was prepared according to NPL 11. As the questionnaire items, the following three items: satiety, hunger, and appetite were set. In each item, the subjects were made to put a mark on a line with a length of 100 mm at a position most close to the state at that moment, then, the length from the left end to the position where the mark was put was measured with a ruler and converted into a numerical value. The obtained results are expressed as a mean and a standard error. A statistical test was performed using an unpaired Student's t test, and the data was marked with * when the P value was less than 5%, the data was marked with ** when the P value was less than 1%, and the data was marked with *** when the P value was less than 0.1%.

[6] = Onset and duration of satiety after ingestion of the agent; type: in vivo
[7] = cited from earlier work
[8] = as compared with D-glucose and D-fructose (NPL 9); cited from earlier work
[9] = oral administration by gavage, 1 g/kg
[10] = oral administration by gavage, 3 g/kg
[11] = 5 g in 150 mL before breakfast, in comparison with control food (aspartame)

SMILES: O=C(CO)[C@H](O)[C@H](O)[C@H](O)CO [D-psicose]
- cumulative food intake (relative value (%)) ([1]; intraperitoneal administration, 1 g/kg): no effect on food intake
- cumulative food intake (relative value (%)) ([1]; intraperitoneal administration, 3 g/kg, 0.5 to 6 hours after administration): significantly decreased
- cumulative food intake (relative value (%)) ([1]; oral administration by gavage, 0.3 g/kg, any time zone after administration): a change in food intake was not observed
- cumulative food intake (relative value (%)) ([1]; oral administration by gavage, 1 g/kg, 0.5 to 6 hours after administration): significantly decreased
- cumulative food intake (relative value (%)) ([1]; oral administration by gavage, 3 g/kg, 0.5 to 6 hours after administration): significantly decreased
- effective amount to reduce food intake in mice ([1]; oral administration by gavage, mice): 1 g/kg
- ratio of preference to the saccharin solution [2, 9]: did not affect the preference to the saccharin solution
- ratio of preference to the saccharin solution [2, 10]: did not affect the preference to the saccharin solution
- expression level of c-Fos in the medullary nucleus tractus solitarius [3]: significantly increased
- expression level of c-Fos in the nodose ganglion [3]: significantly increased
- cumulative liquid food intake (g) ([4]; sham-operated group, up to 3 hours after administration): significantly suppressed
- cumulative liquid food intake (g) ([4]; subdiaphragmatic vagotomized group): the effect was all lost
- hunger (VAS) ([5]; 5 g before breakfast, from immediately after breakfast up to after 4 hours): significantly suppressed
- duration of effect of suppressing appetite (VAS) [5, 11]: ≥ 4 h
- duration of effect of suppressing hunger (VAS) [5, 11]: ≥ 4 h
- satiety after eating (VAS) [5, 11]: sustained
- time until return to the state before the ingestion [6]: 24 h
- time until the effect is exhibited after the ingestion [6]: about 15 minutes
- increase in blood glucose level after eating ([7]; humans, 5 g ingested along with a regular meal (NPL 6, NPL 7)): suppressed
- blood glucose level ([7]; ingested alone (NPL 7)): does not increase
- blood glucose level after eating ([7]; prediabetic adults, 5 g with breakfast versus 10 mg aspartame, crossover (NPL 6)): significant decrease
- absorption in the small intestine [8]: slower

SMILES: [Cl-].[Li+] [lithium chloride, reference compound]
- ratio of preference to the saccharin solution ([2]; intraperitoneal, 3 mmol/kg): significantly decreased

SMILES: O=C[C@H](O)[C@@H](O)[C@H](O)[C@H](O)CO [D-glucose, reference compound]
- cumulative food intake (energy (kcal)) [1, 9]: did not affect food intake
- cumulative food intake (energy (kcal)) [1, 10]: did not affect food intake
